Measured values from US20190315823A1, “SMALL CATIONIC ANTI-BIOFILM AND IDR PEPTIDES” (priority 2013, published 2019).
Ends that are not written are not given here.

Key:
[1] = test system: LPS-stimulated human peripheral blood mononuclear cells (IL1-β); type: cell-based; conditions: Table 12, cells stimulated with 10 ng/ml LPS; for IL1β Production: LPS alone 1313 (HH2 derivatives), 1927 (1018 derivatives), 2455 (1002 and hybrid peptides) pg/ml
[2] = test system: methicillin resistant Staphylococcus aureus (MRSA) biofilm; conditions: approximate peptide concentration […] (around 3 μg/ml); compared to untreated samples
How it was run: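 Peptide was present from inoculation onward, with bacteria seeded at 1/100 from overnight cultures into BM2 biofilm medium or Luria Broth. Crystal violet staining of surface-attached cells (A595) quantified biofilm reduction at 22–46 h. K. pneumoniae was additionally screened in a real-time Bioflux flow device for some peptides.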

[3] = test system: human peripheral blood mononuclear cells (MCP-1); experiment: SPOT-synthesized derivative screen: production of chemokine MCP-1; type: cell-based; conditions: Table 12, No LPS, human PBMC, peptide at ~18-24 μM; for MCP1: background subtracted 139 (HH2 derivatives), 170 (1018 derivatives), 242 (1002 and hybrid peptides) pg/ml
How it was run: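 MCP-1 was quantified by capture ELISA in cleared culture supernatants of treated human peripheral blood mononuclear cells. Cells came from heparinized volunteer blood via Ficoll gradient and were seeded at 0.75 to 1×10^6 cells/ml (37 °C, 5% CO2).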

Substance | Fold change in IL1β relative to no peptide LPS stimulated cells [1] | IL1β Production [1] [pg/mL] | % Biofilm inhibition [2] [%] | Fold increase in MCP1 cf. untreated cells [3] | MCP1 [3] [pg/mL]
1018-K8: single substituted 1018 peptide (VRLIVAVKIWRR-NH2) [Peptide 1018-K8] | 0.18 | 242 | 65 | 8.3 | 1237
HH2-A2: single substituted HH2 peptide (VALRIRVAVIRA-NH2) | 1.23 | 1612 | 69 | 3.8 | 471
1002-I4: single substituted 1002 peptide (VQRILIVWRIRK-NH2) [Peptide 1002-I4] | 0.09 | 213 | 62 | 2.1 | 273.6
1002-I12: single substituted 1002 peptide (VQRWLIVWRIRI-NH2) [Peptide 1002-I12] | 0.05 | 127 | 66 | 0.9 | -36.2
HH2-W4: single substituted HH2 peptide (VQLWIRVAVIRA-NH2) | 0.30 | 399 | 58 | 24 | 3945
1002-G10: single substituted 1002 peptide (VQRWLIVWRGRK-NH2) [Peptide 1002-G10] | 0.09 | 222 | 35 | 1.4 | 91.3
HH2-Q5: single substituted HH2 peptide (VQLRQRVAVIRA-NH2) | 0.98 | 1284 | 25 | 4.5 | 603
HH2-V12: single substituted HH2 peptide (VQLRIRVAVIRV-NH2) | 0.85 | 1119 | 65 | 33 | 5492
HH2-W10: single substituted HH2 peptide (VQLRIRVAVWRA-NH2) | 1.02 | 1344 | 48 | 15 | 2448
1002-K2: single substituted 1002 peptide (VKRWLIVWRIRK-NH2) [Peptide 1002-K2] | 0.05 | 127 | 69 | 2.6 | 392.4
1018-G10: single substituted 1018 peptide (VRLIVAVRIGRR-NH2) [Peptide 1018-G10] | 0.46 | 605 | 55 | 0.8 | -41
1002-V5: single substituted 1002 peptide (VQRWVIVWRIRK-NH2) [Peptide 1002-V5] | 0.18 | 440 | 75 | 38.2 | 9022.6
HH2-V11: single substituted HH2 peptide (VQLRIRVAVIVA-NH2) | 1.15 | 1515 | 51 | 5.6 | 788
HH2-L2: single substituted HH2 peptide (VLLRIRVAVIRA-NH2) | 0.89 | 1172 | 69 | 13 | 1950
HH2-K7: single substituted HH2 peptide (VQLRIRKAVIRA-NH2) | 1.36 | 1782 | 7 | 1.7 | 117
1002-K7: single substituted 1002 peptide (VQRWLIKWRIRK-NH2) [Peptide 1002-K7] | 0.12 | 302 | 28 | 0.9 | -36.2

Substance | Fold change in IL1β relative to no peptide LPS stimulated cells [1] | IL1β Production [1] [pg/mL] | % Biofilm inhibition [2] [%] | Fold increase in MCP1 cf. untreated cells [3] | MCP1 [3] [pg/mL]
1002-A6: single substituted 1002 peptide (VQRWLAVWRIRK-NH2) [Peptide 1002-A6] | 0.16 | 382 | 28 | 3.0 | 485.3
HH2-W8: single substituted HH2 peptide (VQLRIRVWVIRA-NH2) | 0.42 | 553 | 75 | 81 | 13556
HH2-I2: single substituted HH2 peptide (VILRIRVAVIRA-NH2) | 0.81 | 1060 | 54 | 11 | 1748
HH2-G11: single substituted HH2 peptide (VQLRIRVAVIGA-NH2) | 0.99 | 1303 | 72 | 2.0 | 177
1002-R10: single substituted 1002 peptide (VQRWLIVWRRRK-NH2) [Peptide 1002-R10] | 0.05 | 127 | 15 | 2.5 | 375.3
1018-L7: single substituted 1018 peptide (VRLIVALRIWRR-NH2) [Peptide 1018-L7] | 0.10 | 132 | 72 | 0.9 | -10
1018-G1: single substituted 1018 peptide (GRLIVAVRIWRR-NH2) [Peptide 1018-G1] | 0.10 | 127 | 38 | 216 | 36611
1002-I8: single substituted 1002 peptide (VQRWLIVIRIRK-NH2) [Peptide 1002-I8] | 0.06 | 144 | 69 | 6.7 | 1393.2
HH2-K5: single substituted HH2 peptide (VQLRKRVAVIRA-NH2) | 1.19 | 1559 | 27 | 12 | 1923
1018-G8: single substituted 1018 peptide (VRLIVAVGIWRR-NH2) [Peptide 1018-G8] | 0.10 | 127 | 54 | 1.3 | 57
HH2-Q6: single substituted HH2 peptide (VQLRIQVAVIRA-NH2) | 0.83 | 1088 | 35 | 191 | 32306
1018-G6: single substituted 1018 peptide (VRLIVGVRIWRR-NH2) [Peptide 1018-G6] | 0.46 | 598 | 36 | 22 | 3560
1002-V11: single substituted 1002 peptide (VQRWLIVWRIVK-NH2) [Peptide 1002-V11] | 0.05 | 127 | 68 | 3.2 | 541.2
HH2-G2: single substituted HH2 peptide (VGLRIRVAVIRA-NH2) | 1.07 | 1400 | 66 | 3.8 | 471
1018-R9: single substituted 1018 peptide (VRLIVAVRRWRR-NH2) [Peptide 1018-R9] | 0.24 | 310 | 59 | 0.9 | -10
